According to EP1345618B1, “CHLORZOXAZONE FOR THE TREATMENT OF PSORIASIS” (Switch Biotech Aktiengesellschaft, priority 2000, dated 2002):
Entries after “also recorded” stand apart in the source; their conditions may differ. Where two headings read alike, the source gives them in different places.

Experiments:
Type in all cases: cell-based
HaCaT-Keratinozyten [1] = assay: Patch-clamp recording of the membrane potential (Vm) of HaCaT keratinocytes; settings: for Depolarisierung auf ein Plateau während der Behandlung mit ATP: other K+ channel blockers, compared with ChTx and Clotrimazol
Procedure: Um einen Ionenkanal zu identifizieren, der wesentlich bei der Signaltransduktion wundheilungsspezifischer Signale beteiligt ist, wurden HaCaT-Zellen elektrophysiologisch untersucht. Die Anzucht der HaCaT-Keratinozyten erfolgte in DEM mit 10% FRS (Gibco BRL), den Antibiotika (Penicillin/Streptomycin 100 U/ml) zugesetzt worden war. Die Ca^2+-Endkonzentration betrug 1,8 mM. Die Zellen wurden inkubiert bis eine konfluente Zellkultur entstanden war; anschließend wurde das Kulturmedium durch "Standard Bath Solution" (SBS; 130 mM NaCl, 3 mM KCl; 2 mM CaCl2; 2 mM MgCl2; 25 mM HEPES/NaHEPES; 10 mM D-Glukose; pH 7,4) ersetzt und die Schalen an einem inversen Mikroskop (Axiovert, Zeiss) untersucht. Die "Patch"-Pipetten wurden aus Borosilikatröhrchen an einer horizontalen Ausziehvorrichtung (DMZ, Zeitz) nach dem zweistufigen Ausziehverfahren hergestellt. Die Pipetten wurden anschließend mit einer Lösung, die 135 mM Kaliumglukonat, 10 mM KCl, 1,6 mM Na2HPO4, 0,73 mM CaCl2, 1,03 mM MgCl2, 1 mM EGTA, 14 mM HEPES/NaHEPES und […] Nystatin; pH 7,2 enthielt, gefüllt (Ca^2+-Aktivität in der Lösung= 10^-7 M). Der Widerstand dieser "Patch"-Pipetten betrug […] im Bad. Nachdem eine Versiegelung im GΩ-Bereich hergestellt wurde (typischerweise 1,5-2 GΩ) wurde der Verstärker auf Strom-Klemm Modus umgestellt. […] Die elektrophysiologischen Signale wurden mittels eines Axopatch 200 Verstärkers in Verbindung mit einem TL-1 Labmaster Interface und AXOTAPE Software (Axon Instruments) aufgenommen, verstärkt und digitalisiert. Die statistische Auswertung (ein-Weg ANOVA mit Bonferri post-test Vergleich) wurde mit Graphpad prism 2.0 durchgeführt.
Bei Experimenten, bei denen die intrazelluläre Ca^2+-Konzentration durch Blitzphotolyse von "caged IP3" (Calbiochem) erhöht wurde, wurde das "Patch-Clamp Recording" in der Ganzzell-Konfiguration durchgeführt, wobei eine Pipettenlösung enthaltend 120 mM Kaliumglukonat, 20 mM KCl, 1 mM MgCl2, 10 mM HEPES/NaHEPES, 2 mM Na2ATP, 0,3 mM NaGTP (pH 7,2) und 10-100 µM "caged IP3" verwendet wurde. Nach 5-7 min Ganzzell-Aufzeichnung wurde IP3 durch einen UV-Lichtblitz freigesetzt, der durch eine Xenon-Bogen-Lampe (75 W; Anregungsfilter: 330 ± 40 nm), die mit dem Epifluoreszenzport des Mikroskops verbunden war, generiert wurde. Der UV-Lichtstrahl wurde durch das 40-fach Phasenkontrastobjektiv auf die Keratinozyten fokussiert. Die Dauer des Blitzes (1 s) wurde durch einen Uniblitz "Shutter" (Vincent Assoc.) eingestellt.
Bei Experimenten, bei denen die gesamte Lösung, in der die Zellen inkubiert wurden ausgewechselt wurde, wurde ein konischer Plexiglaseinsatz mit mehrfachen Einflußleitungen und einer Ausflußleitung in die Kulturschale eingesetzt, um das Volumen der Ableitkammer auf 1 ml zu reduzieren. Der Zufluß von Flüssigkeit war Schwerkraft-abhängig und wurde durch magnetische Ventile kontrolliert. Der Ausfluß wurde durch das Anlegen eines negativen Drucks mittels einer Vakuumpumpe bewirkt. Die Zugabe von Substanzen erfolgte unter visueller Beobachtung direkt auf die zu untersuchenden Keratinozyten mittels eines ferngesteuerten, magnetgesteuerten Y-Rohrsystem (Durchmesser des Ausflußröhrchens: 100 µm).
Die elektrophysiologischen Ableitungen mittels perforierten "Patches" wurden an HaCaT-Zellen durchgeführt, die zu einem konfluenten Monolayer gewachsen waren.

HaCaT-Keratinozyten [2] = assay: Proliferation by daily count of cells per well; settings: subconfluent cells, n=3
Procedure: Um den Effekt der Inhibitoren des hIK1 Kanals, Clotrimazol und Charybdotoxin, zu untersuchen, wurde zu subkonfluent gewachsenen Zellen entweder 10 µM Clotrimazol, 200 nM Charybdotoxin (ChTx) oder 1 mM 1-EBIO zugegeben und jeden Tag die Anzahl Zellen pro well bestimmt.
Wie aus Figur 5 (n=3) ersichtlich ist, inhibierte die Zugabe sowohl eines der beiden Inhibitoren als auch die Zugabe des Aktivators von hIK1 die Proliferation, während das Wachstum der Kontrollzellen, denen keine Modulatoren zugesetzt worden waren, unbeeinträchtigt blieb.

HaCaT-Zellen = assay: Anti-K10 immunostaining of HaCaT cells (differentiation); settings: 1 mM 1-EBIO, 3 days, compared with control cells without 1-EBIO
Procedure: Dazu wurden proliferierende subkonfluente Zellen, Zellen, die gerade Konfluenz erreicht hatten, und ruhende Zellen (4 Tage nach Konfluenz) untersucht. Die Aktivität dieser Keratinozyten wurde anhand der differenzierungsspezifischen Keratin-10-Expression bestimmt. Dazu wurden die Zellen in eiskaltem PBS gewaschen und mit Aceton/Methanol (1:1) 20 min bei -20°C fixiert. Endogene Peroxidasen wurden mit 1 % H2O2 bei Raumtemperatur blockiert. Nachdem die unspezifischen Bindungsstellen mit 3% BSA in PBS abgesättigt worden waren, wurden die Zellen über Nacht in einer 1:500 Verdünnung des Maus-anti-K10 Antikörpers (DAKO) in 3% BSA in PBS bei 4°C inkubiert und anschließend drei Mal mit PBS und einmal mit 3% BSA in PBS gewaschen. Nach 2 h Inkubation mit einem Peroxidase-gekoppelten anti-Maus Antikörper bei Raumtemperatur wurden die Zellen dreimal mit PBS und einmal mit ddH2O gewaschen. Anschließend wurden die Zellen mit dem Peroxidase Substrat-Kit und 3-Amino-9-ethylcarbazol als chromogenes Substrat (Vector Laboratories) gefärbt. Während die proliferierenden Zellen und die Zellen, die gerade Konfluenz erreicht hatten, keine Färbung aufwiesen, zeigte es sich, daß ein Großteil der postkonfluenten Zellen gefärbt war (Figur 3). […]

HaCaT Zellen [3] = assay: Immunoblot of keratinocyte differentiation markers Involucrin, Keratin 1 and Keratin 10; settings: 1, 100, 1000 µM; 4 days; control 1% DMSO
Source text: Dazu wurden in einer 6-"Well"- Platte 5x10^5 HaCaT Zellen pro "Well" in Medium angezogen. Am nächsten Tag wurde das Medium gewechselt auf Medium, das verschiedene Konzentrationen an 1-EBIO bzw. […] Als Lösungsmittelkontrolle wurde 1% DMSO (Spur "C") in Medium benutzt. Die Zellen wurden 4 Tage lang inkubiert, wobei das Medium täglich ersetzt wurde. Nach 4 Tagen wurden die Proteinkonzentration in den Zelllysaten bestimmt (BCA Assay, Pierce). Gleiche Proteinmengen aus den verschiedenen Lysaten wurden anschliessend mittels Immunoblot gegen die Keratinozytendifferenzierungsmarker Involucrin (1:500, Sigma) sowie Keratin 1 und 10 (1:250, Progen) verglichen (Figur 6).

HaCaT Zellen [4] = assay: BrDU incorporation cell proliferation ELISA (A[450 nm])
Source text: Dabei wurde zunächst der Einfluss verschiedener Konzentrationen von 1-EBIO auf die Wachstumsrate von HaCaT Zellen in An- und Abwesenheit von Serum gemessen. Zu diesem Zweck wurden 1x10^4 HaCaT Zellen pro "Well" in einer 96-"Well" Platte 5 Tage lang in Keratinozytenwachstumsmedium (KGM) kultiviert, um den Zellzyklus zu synchronisieren, gefolgt von einer zweitägigen Inkubation verschiedener Konzentrationen an 1-EBIO in KGM (siehe Figuren 7 und 8) in Abwesenheit (Figur 7) und in Anwesenheit (Figur 8) von Serum. […] Als Lösungmittelkontrolle diente 1% DMSO in KGM. Die Zellproliferation wurde mit Hilfe des Einbaus von […] (BrDU) während der Zellteilung gemäß den Angaben des Herstellers gemessen ("The Cell Proliferation ELISA, BrDU, Roche). Der Einbau von BrDU wurde dabei durch die Bestimmung der Absorption bei 450 nm quantifiziert. In Figur 7 und 8 ist jeweils die Absorption (A[450nm]) als Maß für die Proliferationsrate auf der Y-Achse aufgetragen. Eine höhere Absorption spiegelt eine stärkere Proliferation wieder.

CCCCCCCCCCCCCC(=O)O[C@@H]1[C@@H](C)[C@@]2(O)[C@@H](C=C(CO)C[C@]3(O)C(=O)C(C)=C[C@@H]23)[C@@H]2C(C)(C)[C@]12OC(C)=O [PMA]
Membranpotential (langsame Depolarisierung auf) (HaCaT-Keratinozyten [1]): -32 ± 2 mV | Einfluß auf den Effekt von ATP (HaCaT-Keratinozyten [1]; PMA 60 ng/µl, n=4): beeinflußte jedoch nicht den Effekt von ATP

Charybdotoxin
Einfluß auf die bestehende ATP-vermittelte Hyperpolarisierung (HaCaT-Keratinozyten [1]; ChTx 100 nM added after ATP, ATP still present, n=2): vollständige Umkehrung der Hyperpolarisierung | Einfluß auf die Repolarisierung unter ATP (HaCaT-Keratinozyten [1]; ChTx 100 nM before ATP, n=4): verhinderte ChTx die Repolarisierung vollständig | Einfluß auf die ATP-vermittelte Hyperpolarisierung (HaCaT-Keratinozyten [1]; ChTx 10-100 nM before ATP, n=15): verhinderte eine Hyperpolarisierung | Inhibition der ATP-vermittelten Hyperpolarisierung (HaCaT-Keratinozyten [1]; various concentrations, added before ATP): dosisabhängige Inhibition der ATP-vermittelten Hyperpolarisierung | Proliferation (Anzahl Zellen pro well) (HaCaT-Keratinozyten [2]; Charybdotoxin 200 nM): die Proliferation verlangsamte; also recorded: nur verlangsamtes Wachstum

CCn1c(=O)[nH]c2ccccc21 [1-EBIO, 1-Ethyl-2-benzimidazolinon]
Anteil an K10-gefärbten Zellen (Differenzierung) (HaCaT-Zellen): signifikant reduzierten Anteil an gefärbten Zellen | transiente Depolarisierung nach ATP (HaCaT-Keratinozyten [1]; ATP 10 µM in the presence of 1-EBIO 1 mM): viel stärker war als unter Kontrollbedingungen | Differenzierung (Involucrin, K1, K10) (HaCaT Zellen [3]): dosisabhängig inhibieren | Dosisabhängigkeit der Inhibition der seruminduzierten Proliferation (HaCaT Zellen [4]; 1-EBIO, various concentrations, with serum): dosisabhängig ist und den stärksten Effekt bei einer Konzentration von 1 mM zeigt | Zellproliferation ohne Serum (HaCaT Zellen [4]; KGM without serum, 2 days, 1-EBIO various concentrations, Zoxazolamin 1 mM): alleine nicht in der Lage sind, die Zellproliferation zu stimulieren | Apoptose / Morphologie der Zellen (HaCaT Zellen [4]; cells treated with the activators): keine Anzeichen von Apoptose | seruminduzierte Proliferation (HaCaT Zellen [4]; with 10% FCS, 2 days, 1-EBIO various concentrations, Zoxazolamin 1 mM): in der Lage die seruminduzierte Proliferation zu inhibieren | Proliferation (Anzahl Zellen pro well) (HaCaT-Keratinozyten [2]; 1-EBIO 1 mM): inhibierten die Proliferation vollständig; also recorded: vollständigen Inhibition

CCn1c(=O)[nH]c2cc(Cl)c(Cl)cc21 [DCEBIO, 5,6-dichloro-1-ethyl-1,3-dihydro-2H-benzimidazol-2-on]
Stärke der Depolarisation relativ zu 1-EBIO (HaCaT-Keratinozyten [1]; HaCaT Zellen, relative to 1-EBIO): 300-1000 fach

Bradykinin (RPPGFSPFR; Bradykinin; UniProt P01042 381-389, looked up)
elektrophysiologische Antwort im Vergleich zu ATP (HaCaT-Keratinozyten [1]; Bradykinin 10 µM, n=3): quantitativ und kinetisch praktisch identische Antwort

Clc1ccccc1C(c1ccccc1)(c1ccccc1)n1ccnc1 [Clotrimazol]
Einfluß auf die Repolarisierung unter ATP (HaCaT-Keratinozyten [1]): Derselbe Effekt | Proliferation (Anzahl Zellen pro well) (HaCaT-Keratinozyten [2]; Clotrimazol 10 µM): inhibierten die Proliferation vollständig; also recorded: vollständigen Inhibition

Nc1ncnc2c1ncn2[C@@H]1O[C@H](COP(=O)(O)OP(=O)(O)OP(=O)(O)O)[C@@H](O)[C@H]1O [ATP]
Reversibilität der Hyperpolarisierung (HaCaT-Keratinozyten [1]; 1 µM ATP, n=9): durch Auswaschen der Lösung rasch reversiblen Prozeß | Änderung des Membranpotentials (HaCaT-Keratinozyten [1]; ATP 1-1000 µM perfusion, perforated patch, current clamp, confluent monolayer): biphasische Änderung des Membranpotentials, die aus einer kurzen, transienten Depolarisierung gefolgt von einer deutlichen und langanhaltenden Hyperpolarisierung bestand | Dauer der Hyperpolarisierung nach ATP-Zugabe (HaCaT-Keratinozyten [1]; ATP ≥ 10 µM, added for 5 min): ≥ 5 min

Calphostin C
Einfluß auf die ATP-vermittelte Spannungsänderung (HaCaT-Keratinozyten [1]; Calphostin C 50 nM): beeinflußte jedoch ebenfalls nicht die ATP-vermittelte Spannungsänderung | Membranpotential (schwache Hyperpolarisierung auf) (HaCaT-Keratinozyten [1]; Calphostin C 50 nM): -58 ± 3 mV

NCCc1c[nH]cn1 [Histamin]
elektrophysiologische Antwort im Vergleich zu ATP (HaCaT-Keratinozyten [1]; Histamin 100 µM, n=4): quantitativ und kinetisch praktisch identische Antwort

O=P(O)(O)O[C@@H]1[C@H](O)[C@H](O)[C@@H](OP(=O)(O)O)[C@H](OP(=O)(O)O)[C@H]1O [IP3]
Spannungsänderung nach Freisetzung von IP3 (HaCaT-Keratinozyten [1]; whole-cell, caged-IP3 10-100 µM, UV flash photolysis, n=7): schnellen, transienten Depolarisierung, gefolgt von einer Hyperpolarisierung

[Ba+2] [Ba^2+]
Depolarisierung auf ein Plateau während der Behandlung mit ATP (HaCaT-Keratinozyten [1]): Keiner der anderen getesteten K^+-Kanalblocker (TEA, Ba^2+, und Verapamil) führten zu einer vergleichbaren Depolarisierung auf ein Plateau

CC[N+](CC)(CC)CC [TEA]
Depolarisierung auf ein Plateau während der Behandlung mit ATP (HaCaT-Keratinozyten [1]): Keiner der anderen getesteten K^+-Kanalblocker (TEA, Ba^2+, und Verapamil) führten zu einer vergleichbaren Depolarisierung auf ein Plateau
